Structures are written as SMILES. The source made the active and inactive calls. Some results are limits rather than exact numbers.

Assay [1] concerns the target T1, Bifunctional phosphoribosylaminoimidazole carboxylase/phosphoribosylaminoimidazole succinocarboxamide synthetase (Homo sapiens, UniProt P22234).
T1 sequence (P22234 whole entry): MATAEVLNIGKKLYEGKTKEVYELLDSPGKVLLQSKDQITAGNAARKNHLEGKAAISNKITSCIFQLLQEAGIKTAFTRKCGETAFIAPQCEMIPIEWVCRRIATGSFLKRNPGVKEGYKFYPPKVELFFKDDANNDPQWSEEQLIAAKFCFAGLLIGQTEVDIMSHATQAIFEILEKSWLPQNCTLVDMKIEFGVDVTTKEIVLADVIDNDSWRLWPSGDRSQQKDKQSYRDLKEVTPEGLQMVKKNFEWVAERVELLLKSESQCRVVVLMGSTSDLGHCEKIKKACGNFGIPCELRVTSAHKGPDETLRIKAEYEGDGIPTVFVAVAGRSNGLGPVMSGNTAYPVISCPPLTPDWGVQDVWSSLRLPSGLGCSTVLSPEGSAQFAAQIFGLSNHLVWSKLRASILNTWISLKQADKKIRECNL

In assay [2] the target is Activin receptor type-2B (Homo sapiens, UniProt Q13705).
Assay [3] concerns the target High affinity nerve growth factor receptor (Homo sapiens, UniProt P04629).
The target in assay [4] is T2, Mitogen-activated protein kinase kinase kinase 5 (Homo sapiens, UniProt Q99683).
T2 sequence (Q99683 whole entry): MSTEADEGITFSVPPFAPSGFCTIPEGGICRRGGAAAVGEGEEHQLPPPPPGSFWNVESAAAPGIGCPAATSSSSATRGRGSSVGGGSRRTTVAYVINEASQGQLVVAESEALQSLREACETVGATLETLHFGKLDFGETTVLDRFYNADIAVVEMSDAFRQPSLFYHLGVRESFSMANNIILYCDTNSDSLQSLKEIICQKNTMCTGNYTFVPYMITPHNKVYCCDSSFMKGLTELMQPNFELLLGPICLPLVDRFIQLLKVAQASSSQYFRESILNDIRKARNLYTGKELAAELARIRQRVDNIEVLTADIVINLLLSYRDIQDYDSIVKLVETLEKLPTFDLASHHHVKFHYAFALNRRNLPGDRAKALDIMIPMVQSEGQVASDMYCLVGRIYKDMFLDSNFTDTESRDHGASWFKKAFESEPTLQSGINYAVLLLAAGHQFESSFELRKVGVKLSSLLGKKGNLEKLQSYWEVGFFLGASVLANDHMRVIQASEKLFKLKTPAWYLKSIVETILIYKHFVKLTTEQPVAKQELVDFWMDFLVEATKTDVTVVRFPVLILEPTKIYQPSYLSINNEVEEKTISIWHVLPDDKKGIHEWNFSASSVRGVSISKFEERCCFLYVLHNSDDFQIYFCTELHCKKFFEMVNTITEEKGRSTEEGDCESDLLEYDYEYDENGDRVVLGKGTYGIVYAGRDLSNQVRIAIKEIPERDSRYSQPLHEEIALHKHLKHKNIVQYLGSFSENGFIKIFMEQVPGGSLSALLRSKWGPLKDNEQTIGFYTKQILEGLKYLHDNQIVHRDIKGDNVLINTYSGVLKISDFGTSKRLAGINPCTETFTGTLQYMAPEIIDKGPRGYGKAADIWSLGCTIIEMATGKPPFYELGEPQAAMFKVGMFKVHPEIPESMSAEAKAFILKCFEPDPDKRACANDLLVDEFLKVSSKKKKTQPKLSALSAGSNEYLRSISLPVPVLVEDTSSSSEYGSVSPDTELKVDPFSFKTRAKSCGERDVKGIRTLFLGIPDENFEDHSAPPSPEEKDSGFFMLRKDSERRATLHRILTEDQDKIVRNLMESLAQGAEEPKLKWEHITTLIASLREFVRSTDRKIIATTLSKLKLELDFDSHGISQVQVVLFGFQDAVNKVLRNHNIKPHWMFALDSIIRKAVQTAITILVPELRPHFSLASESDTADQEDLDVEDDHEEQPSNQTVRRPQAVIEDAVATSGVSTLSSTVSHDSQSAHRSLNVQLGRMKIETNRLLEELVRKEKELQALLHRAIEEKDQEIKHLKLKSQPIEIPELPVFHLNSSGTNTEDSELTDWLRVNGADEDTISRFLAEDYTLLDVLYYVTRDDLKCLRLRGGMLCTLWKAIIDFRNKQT
Note: in the data inactive means no Kd found up to 30 µM.

Activin receptor type-2B, sequence (Q13705 whole entry): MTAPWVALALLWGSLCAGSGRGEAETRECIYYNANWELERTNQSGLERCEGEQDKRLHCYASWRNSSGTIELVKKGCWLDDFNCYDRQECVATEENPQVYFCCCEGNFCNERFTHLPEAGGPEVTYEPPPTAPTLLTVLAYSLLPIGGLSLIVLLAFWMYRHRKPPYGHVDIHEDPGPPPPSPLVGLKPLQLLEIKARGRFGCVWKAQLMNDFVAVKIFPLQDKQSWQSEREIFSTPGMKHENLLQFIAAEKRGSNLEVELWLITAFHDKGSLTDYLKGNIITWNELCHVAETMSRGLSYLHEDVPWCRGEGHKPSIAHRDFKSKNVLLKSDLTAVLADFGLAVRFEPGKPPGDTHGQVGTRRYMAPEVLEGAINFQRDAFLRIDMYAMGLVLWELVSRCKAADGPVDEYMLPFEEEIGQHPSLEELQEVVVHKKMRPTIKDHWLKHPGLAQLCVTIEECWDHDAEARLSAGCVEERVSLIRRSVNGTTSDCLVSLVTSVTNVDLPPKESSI
High affinity nerve growth factor receptor, sequence (P04629 whole entry): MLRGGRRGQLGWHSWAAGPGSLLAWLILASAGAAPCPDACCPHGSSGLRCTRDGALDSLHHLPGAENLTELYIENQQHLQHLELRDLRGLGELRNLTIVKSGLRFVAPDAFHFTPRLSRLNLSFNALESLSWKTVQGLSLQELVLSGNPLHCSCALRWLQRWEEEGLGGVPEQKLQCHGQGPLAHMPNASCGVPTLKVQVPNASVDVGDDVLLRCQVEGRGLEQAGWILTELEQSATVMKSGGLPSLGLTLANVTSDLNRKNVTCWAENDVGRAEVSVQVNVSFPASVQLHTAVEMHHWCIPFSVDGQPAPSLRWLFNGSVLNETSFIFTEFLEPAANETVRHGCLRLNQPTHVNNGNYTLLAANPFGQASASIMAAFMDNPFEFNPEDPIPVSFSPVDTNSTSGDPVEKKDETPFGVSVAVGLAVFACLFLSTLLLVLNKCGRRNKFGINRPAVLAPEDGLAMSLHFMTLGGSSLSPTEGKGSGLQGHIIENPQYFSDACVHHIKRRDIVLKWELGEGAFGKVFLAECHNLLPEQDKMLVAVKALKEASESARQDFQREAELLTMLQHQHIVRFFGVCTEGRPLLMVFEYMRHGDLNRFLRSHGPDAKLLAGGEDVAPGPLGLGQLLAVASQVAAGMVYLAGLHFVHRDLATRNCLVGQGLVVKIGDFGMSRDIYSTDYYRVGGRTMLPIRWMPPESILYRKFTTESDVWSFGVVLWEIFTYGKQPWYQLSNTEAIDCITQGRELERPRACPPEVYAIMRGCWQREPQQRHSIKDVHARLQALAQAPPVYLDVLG

What is called Kd is the free concentration of one partner at which half of the binding sites on the other are occupied at equilibrium, for simple one-to-one binding. Take `COc1cc2ncnc(Oc3cccc(NC(=O)Nc4cc(C(C)(C)C(F)(F)F)on4)c3)c2cc1OC` [CEP-32496]: the Kd in assay [1], in assay [2], in assay [3] and in assay [4] was > 30 µM (inactive) each time.

Consider `Cc1cc(Nc2ncc(Cl)c(Nc3ccccc3S(=O)(=O)C(C)C)n2)c(OC(C)C)cc1C1CCNCC1` [CERITINIB], for which the Kd in assay [1], in assay [2], in assay [3] and in assay [4] was > 30 µM (inactive) each time.

On to `COc1c(OCCCN2CCOCC2)ccc2c1N=C(NC(=O)c1cnc(N)nc1)N1CCN=C21` [COPANLISIB], for which the Kd in assay [1], in assay [2], in assay [3] and in assay [4] was > 30 µM (inactive) in each case.

Regarding `COCC(=O)NC/C=C/c1ccc2ncnc(Nc3ccc(Oc4ccc(C)nc4)c(C)c3)c2c1` [CP-724714], the Kd in assay [1], in assay [2], in assay [3] and in assay [4] was > 30 µM (inactive) throughout.

As for `C#Cc1cccc(Nc2ncnc3cc(OC)c(OCCCCCCC(=O)NO)cc23)c1` [CUDC-101], the Kd in assay [1], in assay [2], in assay [3] and in assay [4] was > 30 µM (inactive) in each case.

Consider `Cc1nc2cc(-n3ncc(C(=O)c4cc5ccccc5[nH]4)c3N)ccc2[nH]1` [FGFR INHIBITOR DEBIO 1347], for which the Kd in assay [1], in assay [2], in assay [3] and in assay [4] was > 30 µM (inactive) throughout.

In the case of `O=C(Nc1nc2cccc(-c3ccc(CN4CCS(=O)(=O)CC4)cc3)n2n1)C1CC1` [FILGOTINIB], the Kd in assay [1], in assay [2], in assay [3] and in assay [4] was > 30 µM (inactive) throughout.

As for `Cc1cccc(-c2nn3c(c2-c2ccnc4ccc(C(N)=O)cc24)CCC3)n1` [GALUNISERTIB], the Kd in assay [1], in assay [2], in assay [3] and in assay [4] was > 30 µM (inactive) throughout.

As to `COc1ccc(S(=O)(=O)N(C(C)=O)c2ccccc2/C=C/c2cc[n+]([O-])cc2)cc1` [HMN-214], the Kd in assay [1], in assay [2], in assay [3] and in assay [4] was > 30 µM (inactive) throughout.

On to `O=C(Nc1cc(C(F)(F)F)cc(C(F)(F)F)c1)c1cc(Cl)ccc1O` [IMD-0354], for which the Kd in assay [1], in assay [2], in assay [3] and in assay [4] was > 30 µM (inactive) in each case.

Consider `CNC(=O)c1cccc2cc(Oc3ccnc4cc(OCC5(N)CC5)c(OC)cc34)ccc12` [LUCITANIB], for which the Kd in assay [1], in assay [2], in assay [3] and in assay [4] was > 30 µM (inactive) in each case.

Turning to `CNC(=O)c1nn(C)c2c1C(C)(C)Cc1cnc(Nc3ccc(N4CCN(C)CC4)cc3)nc1-2` [MILCICLIB], the Kd in assay [1] was > 30 µM (inactive); in assay [2], > 30 µM (inactive); in assay [3], 2.96 µM (active); in assay [4], > 30 µM (inactive).

As for `NC1(c2ccc(-c3nc4ccn5c(=O)[nH]nc5c4cc3-c3ccccc3)cc2)CCC1` [MK-2206], the Kd in assay [1], in assay [2], in assay [3] and in assay [4] was > 30 µM (inactive) throughout.

On to `CN(C[C@@H]1COCCO1)S(=O)(=O)Nc1ccc2ccc3ncc(-c4cnn(C)c4)cc3c(=O)c2c1` [MK-2461], for which the Kd in assay [1], in assay [2], in assay [3] and in assay [4] was > 30 µM (inactive) in each case.

Turning to `Cn1cc(-c2cnc3ccc4ccc(CS(=O)(=O)NCc5ccccn5)cc4c(=O)c3c2)cn1` [MK-8033], the Kd in assay [1], in assay [2], in assay [3] and in assay [4] was > 30 µM (inactive) in each case.

As to `FC(F)(F)c1ccc(/C=C/c2nc(COc3ccc(CCCCn4ccnn4)cc3)co2)cc1` [MUBRITINIB], the Kd in assay [1], in assay [2], in assay [3] and in assay [4] was > 30 µM (inactive) throughout.

Regarding `COc1ncc(-c2ccc3nccc(-c4ccnnc4)c3c2)cc1NS(=O)(=O)c1ccc(F)cc1F` [OMIPALISIB], the Kd in assay [1], in assay [2], in assay [3] and in assay [4] was > 30 µM (inactive) each time.

Turning to `CCOc1cc2ncc(C#N)c(Nc3ccc(F)c(Cl)c3)c2cc1NC(=O)/C=C/CN(C)C` [PELITINIB], the Kd in assay [1], in assay [2], in assay [3] and in assay [4] was > 30 µM (inactive) throughout.

For `CCCCCCCCCCCCCCCCCCOP(=O)([O-])OC1CC[N+](C)(C)CC1` [PERIFOSINE], the Kd in assay [1], in assay [2], in assay [3] and in assay [4] was > 30 µM (inactive) throughout.

For `Cc1nc(Nc2n[nH]c3c2CN(C(=O)N[C@H](CN(C)C)c2ccccc2)C3(C)C)c2sccc2n1` [PF-03758309], the Kd in assay [1] was > 30 µM (inactive); in assay [2] it was > 30 µM (inactive); in assay [3], 2.21 µM; in assay [4], > 30 µM (inactive).

As for `Cc1cnc(NC(=O)Nc2cc(Br)c(C)cc2OC[C@@H]2CNCCO2)cn1` [RABUSERTIB], the Kd in assay [1], in assay [2], in assay [3] and in assay [4] was > 30 µM (inactive) in each case.

For `CO[C@H]1C[C@@H]2CC[C@@H](C)[C@@](O)(O2)C(=O)C(=O)N2CCCC[C@H]2C(=O)O[C@H]([C@H](C)C[C@@H]2CC[C@@H](OP(C)(C)=O)[C@H](OC)C2)CC(=O)[C@H](C)/C=C(\C)[C@@H](O)[C@@H](OC)C(=O)[C@H](C)C[C@H](C)/C=C/C=C/C=C/1C` [RIDAFOROLIMUS], the Kd in assay [1], in assay [2], in assay [3] and in assay [4] was > 30 µM (inactive) in each case.

Turning to `N#CC1(c2ccc(NC(=O)c3cccnc3NCc3ccncc3)cc2)CCCC1` [RIVOCERANIB], the Kd in assay [1], in assay [2], in assay [3] and in assay [4] was > 30 µM (inactive) in each case.

For the compound `O=c1[nH]ccc2cc(OC3CCNCC3)ccc12` [SAR-407899 FREE BASE], the Kd in assay [1], in assay [2], in assay [3] and in assay [4] was > 30 µM (inactive) throughout.

On to `CN1CCN(CCOc2cc(OC3CCOCC3)c3c(Nc4c(Cl)ccc5c4OCO5)ncnc3c2)CC1` [SARACATINIB], for which the Kd is > 30 µM (inactive) in assay [1], 3.88 µM (active) in assay [2], > 30 µM (inactive) in assay [3] and > 30 µM (inactive) in assay [4].
